Experimental data from US6688468B2, “Pharmaceutical kit for oxygen-sensitive drugs” (Pfizer Inc., priority 2001, dated 2004).

Assay: 18-week stability of Compound I tablets packaged in 60 cc HDPE bottles with HIS; degradation products by HPLC
Format: physicochemical
Settings: Initial bulk, 0 weeks
Procedure: In an initial evaluation of oxygen absorbers, the bottles were sealed with heat induction seals (HIS). The following samples were prepared by placing the following materials in a round HDPE bottle (60 cc capacity) and sealing with a heat-induction seal:
Tablets were stored eighteen weeks under three different conditions: (1) 5° C./75% relative humidity (RH); (2) 40° C./75% RH; and (3) 50° C./20% RH. Air in the bottles was sampled using a gas tight syringe equipped with a septum seal as the foil was punctured. The sampled air was analyzed using a Mocon™ headspace analyzer (PAL Model 450 available from Mocon™ Inc., Minneapolis, Minn.). Each tablet was dissolved in 250 ml of a solution prepared by dissolving 21.6 g of octane sulfonic acid and 6.8 g of potassium phosphate in 1.0 liters of purified water and adjusting the pH to 3 with phosphoric acid followed by the addition of 818 mL of acetonitrile. Degradation products were identified by high pressure liquid chromatography (HPLC) (Waters sym C8 column, 15 cm×3.9 mm, nylon acrodisc filter, HPLC HP 1100 series, 20 μl injection volume, flow of 1 mL/min). The degradation products were compared against three known standards (Compounds I-1A′, I-1A″ and I-1B).

- I-1A′: 0.000 Wt %
- I-1A″: 0.300 Wt %
- I-1B: 0.027 Wt %
- Total: 0.37%
- Unknown (first Unknown column): 0.01 Area %
- Unknown (second Unknown column): 0.03 Area %
SMILES: COc1ccc(C(C)C)cc1CN[C@@H]1C2CCN(CC2)[C@@H]1C(c1ccccc1)c1ccccc1 [Compound I]
